Measurements taken from patent US20200031811A1, “SUBSTITUTED MONO- AND POLYAZANAPHTHALENE DERIVATIVES AND THEIR USE” (Basilea Pharmaceutica International AG, priority 2015, published 2020).

Legend:
MNK1 = biological target: T1, MNK1 (Homo sapiens, UniProt Q9BUB5); assay: MNK inhibition assay (Z-Lyte kinase assay, Ser/Thr 7 peptide); format: biochemical; settings: recombinant GST-MNK1, 3 hours at 31° C.
T1 construct: purchased Life Technologies or Carna Biosciences PV6023 or 02-145; host or cells: baculovirus infected insect cells
Outline: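 Recombinant GST-MNK1 from baculovirus-infected insect cells, Z-Lyte Ser/Thr 7 peptide, enzyme set for ~30% phosphorylation in buffer-only wells; 3 hours at 31° C. Compounds at 50–10000 nM (potent ones down to 0.5 nM), at least duplicate. IC50 from % substrate phosphorylation versus buffer-only wells, fluorescence read-out.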

[1] = tested on: human pancreatic cancer cell line MiaPaCa2 (ATCC CRL-1420); assay: Cell growth assay (CellTiterGlo, 72 hours); format: cell-based; settings: MIA PaCa-2, MiaPaCa2 cells, 72 hours, read-out: IC50 MiaPaCa
Outline: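 MiaPaCa2 cells (10^3/well) seeded in supplemented DMEM overnight, then exposed in quadruplicate to compound at 100 down to 0.1 μM for 72 h at 37° C. Growth read by CellTiterGlo luminescence, medium-only background subtracted, normalised to untreated cells; IC50 = concentration reducing growth to 50%.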

T1 sequence (Q9BUB5 whole entry): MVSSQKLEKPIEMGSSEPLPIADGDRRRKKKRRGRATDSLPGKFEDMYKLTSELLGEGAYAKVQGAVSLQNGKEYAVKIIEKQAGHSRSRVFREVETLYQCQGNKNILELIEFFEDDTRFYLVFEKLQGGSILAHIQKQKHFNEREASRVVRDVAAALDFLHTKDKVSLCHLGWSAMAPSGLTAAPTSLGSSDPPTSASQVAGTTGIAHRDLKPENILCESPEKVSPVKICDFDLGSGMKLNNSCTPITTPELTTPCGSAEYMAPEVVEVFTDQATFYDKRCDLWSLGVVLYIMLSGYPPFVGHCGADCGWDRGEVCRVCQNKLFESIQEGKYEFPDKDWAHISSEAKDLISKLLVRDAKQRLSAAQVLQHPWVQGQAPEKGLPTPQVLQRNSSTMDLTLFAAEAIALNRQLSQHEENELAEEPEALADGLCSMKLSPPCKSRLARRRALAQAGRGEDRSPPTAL

| IC50 (MNK1) [nM] | IC50 [1] [nM] | Compound |
| --- | --- | --- |
| 308 | 20500 | NC1CCN(Cc2cc([N+](=O)[O-])c3cncc(-c4cc5ccccc5o4)c3c2)CC1 [Example 252, 1-[[4-(Benzofuran-2-yl)-8-nitro-6-isoquinolyl]methyl]piperidin-4-amine] |
| 57 | 6990 | Nc1cc2cncc(-c3cc4ccccc4o3)c2cc1CN1CCC(N)CC1 [Example 254, 6-[(4-Amino-1-piperidyl)methyl]-4-(benzofuran-2-yl)isoquinolin-7-amine] |
| 216 | 1220 | Nc1ncc(-c2cc3ccccc3o2)c2cc(CN3CCC(N)CC3)cc(Cl)c12 [Example 256, 6-[(4-Amino-1-piperidyl)methyl]-4-(benzofuran-2-yl)-8-chloro-isoquinolin-1-amine] |
| 149 | 3570 | COc1cc(CN2CCC(N)CC2)cc2c(-c3cc4ccccc4o3)cnc(N)c12 [Example 258, 6-[(4-Amino-1-piperidyl)methyl]-4-(benzofuran-2-yl)-8-methoxy-isoquinolin-1-amine] |
| 1590 | 17500 | Nc1ncc2ccc(CN3CCNCC3)cc2c1-c1cc2ccccc2o1 [Example 260, 4-(Benzofuran-2-yl)-6-(piperazin-1-ylmethyl)isoquinolin-3-amine] |
| 28 | 6800 | c1ccc2oc(-c3cncc4ccc(CNc5ccnc6ncccc56)cc34)cc2c1 [Example 262, N-[[4-(Benzofuran-2-yl)-6-isoquinolyl]methyl]-1,8-naphthyridin-4-amine] |
| 703 | 9970 | NC1CCN(Cc2ccc3cncc(-c4cc5ccccc5o4)c3c2)CC1(F)F (stereo not shown) [Example 263, 1-[[4-(Benzofuran-2-yl)-6-isoquinolyl]methyl]-3,3-difluoro-piperidin-4-amine] |
| 53 | 5330 | N[C@@H]1CCN(Cc2ccc3cncc(-c4cc5ccccc5o4)c3c2)C[C@H]1O [Example 268, (3R,4R/3S,4S)-4-Amino-1-[[4-(benzofuran-2-yl)-6-isoquinolyl]methyl]piperidin-3-ol] |
| 141 | 9030 | N[C@@H]1CCN(Cc2ccc3cncc(-c4cc5ccccc5o4)c3c2)C[C@@H]1O [Example 269, (3S,4R/3R,4S)-4-Amino-1-[[4-(benzofuran-2-yl)-6-isoquinolyl]methyl]piperidin-3-ol] |
| 934 | 13700 | CO[C@H]1CN(Cc2ccc3cncc(-c4cc5ccccc5o4)c3c2)CC[C@H]1N [Example 270, (3S,4R/3R,4S)-1-[[4-(Benzofuran-2-yl)-6-isoquinolyl]methyl]-3-methoxy-piperidin-4-amine] |

Further lines, the compound ahead of its results:

| Compound | IC50 (MNK1) [nM] | IC50 [1] [nM] |
| --- | --- | --- |
| Nc1ncc(-c2ccccc2)c2cc(CN3CCC(N)CC3)cc(Cl)c12 [Example 257] | 159 | 4870 |
| COc1cc(CN2CCC(N)CC2)cc2c(-c3ccccc3)cnc(N)c12 [Example 259] | 66 | 1300 |
| Nc1ncc2ccc(CNc3ccnc4ccccc34)cc2c1-c1cc2ccccc2o1 [Example 261, 4-(Benzofuran-2-yl)-6-[(4-quinolylamino)methyl]isoquinolin-3-amine] | 54 | 3990 |
| Nc1ncc(-c2ccccc2)c2cc(CN3CCC(N)CC3)c(Cl)cc12 [Example 264, 6-[(4-Amino-1-piperidyl)methyl]-7-chloro-4-phenyl-isoquinolin-1-amine] | 194 | 5930 |
| NC1CCN(Cc2cc3c(-c4ccccc4)cncc3cc2O)CC1 [Example 265, 6-[(4-Amino-1-piperidyl)methyl]-4-phenyl-isoquinolin-7-ol] | 308 | 21900 |
| COc1cc2cncc(-c3ccccc3)c2cc1CN1CCC(N)CC1 [Example 266, 1-[(7-Methoxy-4-phenyl-6-isoquinolyl)methyl]piperidin-4-amine] | 59 | 14400 |
| COc1cc2c(N)ncc(-c3ccccc3)c2cc1CN1CCC(N)CC1 [Example 267, 6-[(4-Amino-1-piperidyl)methyl]-7-methoxy-4-phenyl-isoquinolin-1-amine] | 340 | 3930 |
